22 molecules from ChEMBL document CHEMBL4346753, “Towards multi-target antidiabetic agents: Discovery of biphenyl-benzimidazole conjugates as AMPK activators” (Bioorg Med Chem Lett, 2019) can be followed below.

Active and inactive are the calls of the source. No cut-off for these calls is given here.

The target of data set [1] is T1, AMP-activated protein kinase (AMPK) alpha-1/beta-1/gamma-1 (Homo sapiens) (UniProt P54619+Q9Y478+Q13131). Briefly: Activation of C-terminal His tagged human recombinant full length AMPK alpha1/beta1/gamma1 expressed in baculovirus infected Sf9 cells using SAMS peptide as substrate at 100 uM incubated for 60 mins by ADP-Glo luminescence assay relative to control.

The species named for the next data set is Rattus norvegicus. Nature of the data set: Antagonist activity at AT1 receptor in rat portal vein assessed as reduction in […] contraction at 10 uM incubated for 1 min relative to control. Also on record: scale not given: the % may be the effect or the level left.
The next data set relates to Platelet. Briefly: Antiplatelet activity in rabbit platelet rich plasma assessed as inhibition of ADP-induced platelet aggregation at 100 uM relative to control. In kind it is functional, Oryctolagus cuniculus. Also noted: scale not given: the % may be the effect or the level left.
Data set [2] in a line: Ratio of antiplatelet activity for test compound to antiplatelet activity for acetylsalicylic acid in rabbit platelet rich plasma assessed as inhibition of ADP-induced platelet aggregation at 100 uM. In kind it is functional, Oryctolagus cuniculus.
The nature of data set [3]: Inhibition of AGE formation assessed as reduction in bovin serum albumin glycation at 1 mM incubated for 24 hrs in presence of glucose by spectrophotometric analysis relative to control. In kind it is functional.
Data set [4] is described as follows: Inhibition of AGE formation assessed as reduction in reduction in bovin serum albumin glycation incubated for 24 hrs in presence of glucose by spectrophotometric analysis. In kind it is functional.
Data set [5] in a line: Inhibition of AGE formation assessed as reduction in reduction in bovin serum albumin glycation incubated for 24 hrs in presence of glucose, Cu2+ by spectrophotometric analysis. In kind it is functional.
Data set [6] in a line: Binding affinity to glyoxal assessed as reduction in glyoxal by GirardT reagent based spectrophotometric method.
The test system of data set [7] is Peritoneal macrophage. Briefly: Cytotoxicity against mouse peritoneal macrophages up to 50 uM incubated for 24 hrs by neutral red assay. In kind it is cell-based.
Data set [8] has as its target T2, AMP-activated protein kinase (AMPK) alpha-1/beta-1/gamma-1 (Homo sapiens, UniProt P54619+Q13131+Q9Y478). Briefly: (§1) Activation of C-terminal His tagged human recombinant full length AMPK alpha1/beta1/gamma1 expressed in baculovirus infected Sf9 cells using SAMS peptide as substrate incubated for 60 mins by ADP-Glo luminescence assay.
Data set [9] has as its system Peritoneal macrophage. Briefly: Anti-inflammatory activity in mouse peritoneal macrophages assessed as inhibition of LPS-induced NO production incubated for 22 hrs by Griess reagent based colorimetric assay. In kind it is functional, cell-based.
Data set [10] deals with Peritoneal macrophage. Nature of the data set: Cytotoxicity against mouse peritoneal macrophages up to 50 uM incubated for 24 hrs by MTT assay. In kind it is cell-based.
A short description of data set [11]: Solubility of the compound in PBS at pH 7.4. In kind it is physicochemical.
In data set [12] the target is T1, AMP-activated protein kinase (AMPK) alpha-1/beta-1/gamma-1 (Homo sapiens). Nature of the data set: Activation of C-terminal His tagged human recombinant full length AMPK alpha1/beta1/gamma1 expressed in baculovirus infected Sf9 cells assessed as enzyme activation using SAMS peptide as substrate at 100 uM incubated for 60 mins by ADP-Glo luminescence assay relative to control.

Data set [13] deals with AMP-activated protein kinase, AMPK. Briefly: Activation of recombinant human AMPK expressed in Sf9 cells using SAMS peptide as substrate preincubated for 30 mins followed by substrate addition and measured after 60 mins by fluorescence based assay.
Data set [14] concerns the target 5'-AMP-activated protein kinase. Briefly: Activation of recombinant mouse AMPK expressed in Sf9 cells using SAMS peptide as substrate preincubated for 30 mins followed by substrate addition and measured after 60 mins by fluorescence based assay.
Data set [15] is described as follows: Activation of recombinant rhesus monkey AMPK expressed in Sf9 cells using SAMS peptide as substrate preincubated for 30 mins followed by substrate addition and measured after 60 mins by fluorescence based assay. Also noted: species or system Macaca mulatta.
Data set [16] addresses T2, AMP-activated protein kinase (AMPK) alpha-1/beta-1/gamma-1. Nature of the data set: Activation of human AMPK alpha1/beta1/gamma1 expressed in baculovirus/Sf9 cells using SAMS peptide as substrate incubated for 15 mins by in presence of 33P-ATP by liquid scintillation counting method.
Data set [17] in a line: Inhibition of AGE formation assessed as reduction in reduction in bovin serum albumin glycation at 1 mM incubated for 24 hrs in presence of glucose, Cu2+ by spectrophotometric analysis relative to control. In kind it is functional.
In data set [18] the target is T1, AMP-activated protein kinase (AMPK) alpha-1/beta-1/gamma-1 (Homo sapiens). Described as §1.
A short description of data set [19]: Ratio of inhibition of formation in AGE for test compound to inhibition of formation in AGE for aminoguanidine at 1 mM incubated for 24 hrs in presence of glucose by spectrophotometric analysis.

T2 sequence (P54619 whole entry): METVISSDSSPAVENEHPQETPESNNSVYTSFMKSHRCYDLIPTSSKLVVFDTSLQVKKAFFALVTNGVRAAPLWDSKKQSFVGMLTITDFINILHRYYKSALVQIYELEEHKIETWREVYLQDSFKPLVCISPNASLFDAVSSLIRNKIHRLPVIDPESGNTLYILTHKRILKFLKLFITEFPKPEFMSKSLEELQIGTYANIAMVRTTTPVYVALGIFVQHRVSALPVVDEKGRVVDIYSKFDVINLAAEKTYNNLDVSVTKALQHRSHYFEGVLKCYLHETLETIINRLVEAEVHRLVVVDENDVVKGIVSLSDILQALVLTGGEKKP
T2 sequence (Q9Y478 whole entry): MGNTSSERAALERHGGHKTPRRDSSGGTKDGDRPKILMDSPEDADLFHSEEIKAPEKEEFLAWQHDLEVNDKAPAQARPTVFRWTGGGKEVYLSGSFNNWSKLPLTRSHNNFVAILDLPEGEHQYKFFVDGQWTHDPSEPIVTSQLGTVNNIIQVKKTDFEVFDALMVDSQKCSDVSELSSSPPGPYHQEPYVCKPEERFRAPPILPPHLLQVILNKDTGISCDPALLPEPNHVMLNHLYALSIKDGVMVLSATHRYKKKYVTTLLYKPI
T2 sequence (Q13131 whole entry): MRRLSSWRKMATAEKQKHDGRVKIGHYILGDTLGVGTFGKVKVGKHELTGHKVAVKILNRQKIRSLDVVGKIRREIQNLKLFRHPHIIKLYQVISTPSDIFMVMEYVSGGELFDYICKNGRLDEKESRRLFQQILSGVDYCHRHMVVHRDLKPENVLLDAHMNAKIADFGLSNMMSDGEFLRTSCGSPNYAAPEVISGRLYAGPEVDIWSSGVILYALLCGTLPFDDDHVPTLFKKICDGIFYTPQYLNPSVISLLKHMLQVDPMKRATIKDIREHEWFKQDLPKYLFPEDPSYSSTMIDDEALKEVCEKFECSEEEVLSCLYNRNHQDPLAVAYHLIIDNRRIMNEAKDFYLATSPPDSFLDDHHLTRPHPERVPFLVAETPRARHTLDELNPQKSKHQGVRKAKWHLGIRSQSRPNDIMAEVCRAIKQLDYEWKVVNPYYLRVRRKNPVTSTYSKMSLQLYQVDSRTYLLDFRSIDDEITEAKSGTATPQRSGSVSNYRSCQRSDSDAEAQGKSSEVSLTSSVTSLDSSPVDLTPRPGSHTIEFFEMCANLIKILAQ
T1 sequence (P54619 whole entry): as the sequence (P54619 whole entry) above
T1 sequence (Q13131 whole entry partner): as the sequence (Q13131 whole entry) above
T1 sequence (Q9Y478 2-270 partner limits assumed): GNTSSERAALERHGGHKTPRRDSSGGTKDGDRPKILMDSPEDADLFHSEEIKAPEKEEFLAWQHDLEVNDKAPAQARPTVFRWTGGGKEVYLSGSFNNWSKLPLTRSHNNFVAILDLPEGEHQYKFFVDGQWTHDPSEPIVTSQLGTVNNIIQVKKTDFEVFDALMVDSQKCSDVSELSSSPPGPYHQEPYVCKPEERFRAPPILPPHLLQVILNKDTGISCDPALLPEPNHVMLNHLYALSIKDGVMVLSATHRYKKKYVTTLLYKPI

On to `Br.c1ccc(-c2ccc(CN3C4=NCCCCN4c4ccccc43)cc2)cc1`, for which the values for the Activity (in [1]; in the data set listed under Rattus norvegicus; with Platelet) were 12.3%, 13.5% and 98.7%, respectively. Besides, the Ratio in data set [2] was 2.1 - 3.6.

As to `N=C(N)NN` [PIMAGEDINE], in data set [3], the inhibition came out at 57.8%. Further, the IC50 is 765 µM in [4] and “Not Active” in data set [5]. In addition, the result in [6] was Active.

`Br.c1ccc(-c2ccc(CN3C4=NCCCN4c4ccccc43)cc2)cc1`: the Activity in data set [1] worked out at 16%; in the data set listed under Rattus norvegicus, 14.6%; with Platelet, 95.2%. Further, the inhibition in [3] came to 9.9%. In addition, in data set [2], the Ratio is 2.1 - 3.6.

Take `Br.N#Cc1ccccc1-c1ccc(CN2C3=NCCCN3c3ccccc32)cc1`: the Activity result was “Non-Toxic” with Peritoneal macrophage [7], 197% in data set [1], 40.4% in the data set filed under Rattus norvegicus and “Non-Toxic” with Peritoneal macrophage [10]. In data set [8] (read-out: EC50), the EC50 turned out to be 0.34 µM. The inhibition in data set [3] is -9.2%. Also, the IC50 with Peritoneal macrophage [9] worked out at 4.96 µM. Moreover, the solubility in data set [11] was greater than 500 µM. Besides, the fold change (FC) in data set [12] came to 2.81.

Consider `O[C@@H]1CO[C@H]2[C@@H]1OC[C@H]2Oc1nc2nc(-c3ccc(-c4ccccc4)cc3)c(Cl)cc2[nH]1`, for which the EC50 in data set [13], in [14] and in [15] was 0.001 to 0.06 µM each time.

Take `Br.N#Cc1ccccc1-c1ccc(CN2C3=NCCCCN3c3ccccc32)cc1`: the Activity entry in the data set on Peritoneal macrophage [7] was “Non-Toxic”; in data set [1], 293%; in the data set filed under Rattus norvegicus it was 0%; with Peritoneal macrophage [10], “Non-Toxic”. The EC50 in data set [8] (read-out: EC50) was found to be 0.44 µM. For the same molecule, the solubility in data set [11] was greater than 500 µM. For the same molecule, the fold change (FC) in data set [12] is 4.

On to `Br.CCOC(=O)c1ccc(CN2C3=NCCN3c3ccccc32)cc1`, for which the Activity in [1] was 0.6%; in the data set filed under Rattus norvegicus, 5.6%; in the data set on Platelet it was 76.3%. Also, the inhibition in data set [3] turned out to be 17.5%. In [2], the Ratio is 2.1 - 3.6.

Turning to `Br.c1ccc(-c2ccc(CN3C4=NCCN4c4ccccc43)cc2)cc1`, the Activity in data set [1] stood at 54.2%; in the data set filed under Rattus norvegicus, 5.2%; with Platelet, 89.2%. For the same molecule, in data set [3], the inhibition was 22.5%. Also, the Ratio in data set [2] is 2.1 - 3.6.

`COC(=O)c1ccccc1-c1ccc(CN2C3=NCCN3c3ccccc32)cc1`: the Activity in data set [1] is 3.5%; in the data set listed under Rattus norvegicus it was -5.7%. Besides, in data set [3], the inhibition came out at 0.4%.

Regarding `Br.N#Cc1ccccc1-c1ccc(CN2C3=NCCN3c3ccccc32)cc1`, the Activity in [1] is 163%; in the data set listed under Rattus norvegicus it was 21.9%; in the data set with Platelet, 57.1%. Further, the EC50 in data set [8] (read-out: EC50) was 109 µM; in data set [8] (read-out: pEC50 (converted)), 25.1 µM. Further, the inhibition in data set [3] was found to be 8.6%. Moreover, the IC50 in the data set on Peritoneal macrophage [9] came out at 5.32 µM. Moreover, the Ratio in [2] is given as 2.1 - 3.6. The molecule further displayed a solubility in [11] greater than 500 µM. The fold change (FC) in data set [12] was 1.56.

`Br.COC(=O)c1ccccc1-c1ccc(CN2C3=NCCCCN3c3ccccc32)cc1`: the Activity in data set [1] was -11.3%; in the data set listed under Rattus norvegicus, 33.3%; in the data set on Platelet, 97.4%. Also, in data set [3], the inhibition stood at 17.9%. The Ratio in [2] was 2.1 - 3.6.

Regarding `O=C(O)c1ccccc1-c1ccc(CN2C3=NCCCN3c3ccccc32)cc1`, the Activity was -16.2% in data set [1] and 7.5% in the data set listed under Rattus norvegicus. Also, in data set [3], the inhibition was found to be 38.5%.

For `Br.O=C(O)c1ccc(CN2C3=NCCN3c3ccccc32)cc1`, the Activity in data set [1] amounted to 3.7%; in the data set filed under Rattus norvegicus it was 11.1%; in the data set on Platelet it was 57%. Moreover, the inhibition in data set [3] is 19.2%. The Ratio in [2] is on record as 2.1 - 3.6.

Turning to `O=C(O)c1ccccc1-c1ccc(CN2C3=NCCCCN3c3ccccc32)cc1`, the Activity is -36.4% in [1] and 20% in the data set listed under Rattus norvegicus. The inhibition in data set [3] is 30.8%.

`O=C(O)c1ccccc1-c1ccc(CN2C3=NCCN3c3ccccc32)cc1`: the results for the Activity (in data set [1]; in the data set filed under Rattus norvegicus) were 6.9% and -1.7%, respectively. Moreover, the inhibition in data set [3] was found to be 7.7%.

For `N#Cc1c(O)c2c(-c3ccc(-c4ccccc4O)cc3)csc2[nH]c1=O`, the EC50 in data set [16] is 0.8 µM.

With `COC(=O)c1ccccc1-c1ccc(CN2C3=NCCCN3c3ccccc32)cc1`, the Activity was determined as 21.7% in [1] and 5.9% in the data set listed under Rattus norvegicus. The inhibition in data set [3] is 14.9%.

Consider `C[C@@H]1C[C@H]2[C@@H]3CCC4=CC(=O)C=C[C@]4(C)[C@@]3(F)[C@@H](O)C[C@]2(C)[C@@]1(O)C(=O)CO` [DEXAMETHASONE], for which the IC50 with Peritoneal macrophage [9] turned out to be 0.15 µM.

`CC(=O)Oc1ccccc1C(=O)O` [ASPIRIN]: in the data set on Platelet, the Activity is listed as 27.8%.

As for `Cc1ccc(OCCSc2ncccn2)c(Br)c1`, the Activity in data set [1] stood at 157%. Besides, the EC50 in [8] (read-out: EC50) is 0.55 µM.

`Br.N#Cc1ccc(C(=O)CN2C3=NCCN3c3ccccc32)cc1`: the inhibition came to 25.4% in data set [17] and 72.1% in data set [3]. Also, the figures for the Activity (in data set [1]; in the data set filed under Rattus norvegicus; in the data set on Platelet) were 25.5%, 0% and 6.6%, respectively. In addition, in data set [18], the pEC50 result is “inactive”. Besides, the Ratio in data set [19] came to 1.8. Besides, the values for the IC50 in data set [4] and in [5] (read-out: IC50) were 422 µM and greater than 1000 µM, respectively. Besides, the solubility in data set [11] was greater than 500 µM. In [12], the “fold change (FC)” value is “inactive”. Moreover, in data set [6], the result was Active.

As to `CCCCc1nc(Cl)c(CO)n1Cc1ccc(-c2ccccc2-c2nnn[nH]2)cc1` [LOSARTAN], the inhibition in [17] and in [3] was 51.4% in each case. Also, the Activity in the data set listed under Rattus norvegicus amounted to 99%. The results for the IC50 in data set [4] and in data set [5] (read-out: IC50) were greater than 1000 µM and 782 µM, respectively.
